The values that follow come from ChEMBL document CHEMBL4673346, “Discovery of a benzimidazole series as the first highly potent and selective ACSL1 inhibitors” (Bioorg Med Chem Lett, 2021).

Assay [1] addresses T1, Long-chain-fatty-acid--CoA ligase 6 (Homo sapiens, UniProt Q9UKU0).
T1 sequence (Q9UKU0 whole entry): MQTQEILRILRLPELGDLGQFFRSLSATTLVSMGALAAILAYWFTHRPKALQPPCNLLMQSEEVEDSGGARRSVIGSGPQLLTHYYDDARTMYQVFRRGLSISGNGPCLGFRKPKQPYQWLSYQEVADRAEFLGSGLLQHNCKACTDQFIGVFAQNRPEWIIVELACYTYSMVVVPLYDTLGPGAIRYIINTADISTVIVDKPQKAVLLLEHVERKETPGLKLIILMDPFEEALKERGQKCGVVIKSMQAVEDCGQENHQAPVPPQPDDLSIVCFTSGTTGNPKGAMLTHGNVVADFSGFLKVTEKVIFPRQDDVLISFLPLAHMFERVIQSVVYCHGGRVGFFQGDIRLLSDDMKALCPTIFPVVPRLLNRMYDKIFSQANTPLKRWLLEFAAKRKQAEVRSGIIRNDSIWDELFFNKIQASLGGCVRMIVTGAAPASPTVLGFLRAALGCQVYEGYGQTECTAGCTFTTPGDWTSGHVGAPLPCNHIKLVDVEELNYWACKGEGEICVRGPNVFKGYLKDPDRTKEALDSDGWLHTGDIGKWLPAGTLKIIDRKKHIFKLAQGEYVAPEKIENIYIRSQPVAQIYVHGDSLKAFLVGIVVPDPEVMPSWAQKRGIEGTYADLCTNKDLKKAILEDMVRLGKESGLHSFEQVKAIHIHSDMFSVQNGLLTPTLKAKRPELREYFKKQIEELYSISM
The experiment in a line: Inhibition of recombinant human ACSL6 assessed as reduction in […] prodution incubated for 60 mins in presence of Coenzyme A, ATP and MgCl2 by MALDI-TOF MS analysis.

In assay [2] the target is Long-chain-fatty-acid--CoA ligase 4 (Homo sapiens, UniProt O60488). The experiment in a line: Inhibition of recombinant human ACSL4 assessed as reduction in […] prodution incubated for 120 mins in presence of Coenzyme A, ATP and MgCl2 by MALDI-TOF MS analysis.
Sequence of Long-chain-fatty-acid--CoA ligase 4 (O60488 whole entry): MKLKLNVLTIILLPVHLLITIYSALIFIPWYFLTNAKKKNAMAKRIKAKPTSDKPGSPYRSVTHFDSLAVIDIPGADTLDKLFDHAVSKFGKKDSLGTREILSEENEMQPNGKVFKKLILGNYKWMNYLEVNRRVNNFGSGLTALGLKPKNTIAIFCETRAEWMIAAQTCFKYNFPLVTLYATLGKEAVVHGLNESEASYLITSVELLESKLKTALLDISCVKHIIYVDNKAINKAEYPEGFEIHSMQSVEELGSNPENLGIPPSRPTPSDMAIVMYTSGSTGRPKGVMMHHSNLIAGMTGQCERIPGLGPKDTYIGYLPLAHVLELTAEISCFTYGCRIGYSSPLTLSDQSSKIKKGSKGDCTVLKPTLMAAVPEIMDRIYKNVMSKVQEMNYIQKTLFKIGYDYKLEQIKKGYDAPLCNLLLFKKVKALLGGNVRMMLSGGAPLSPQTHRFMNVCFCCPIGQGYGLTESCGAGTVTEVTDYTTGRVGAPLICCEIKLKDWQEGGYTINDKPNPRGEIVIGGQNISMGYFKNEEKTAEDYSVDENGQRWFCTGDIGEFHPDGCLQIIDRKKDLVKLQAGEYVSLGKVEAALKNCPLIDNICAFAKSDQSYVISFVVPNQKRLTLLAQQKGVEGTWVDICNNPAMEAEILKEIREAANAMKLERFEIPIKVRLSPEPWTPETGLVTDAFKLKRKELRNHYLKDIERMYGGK
Assay [3] has as its target T2, Long-chain-fatty-acid--CoA ligase 5 (Homo sapiens, UniProt Q9ULC5).
T2 sequence (Q9ULC5 whole entry): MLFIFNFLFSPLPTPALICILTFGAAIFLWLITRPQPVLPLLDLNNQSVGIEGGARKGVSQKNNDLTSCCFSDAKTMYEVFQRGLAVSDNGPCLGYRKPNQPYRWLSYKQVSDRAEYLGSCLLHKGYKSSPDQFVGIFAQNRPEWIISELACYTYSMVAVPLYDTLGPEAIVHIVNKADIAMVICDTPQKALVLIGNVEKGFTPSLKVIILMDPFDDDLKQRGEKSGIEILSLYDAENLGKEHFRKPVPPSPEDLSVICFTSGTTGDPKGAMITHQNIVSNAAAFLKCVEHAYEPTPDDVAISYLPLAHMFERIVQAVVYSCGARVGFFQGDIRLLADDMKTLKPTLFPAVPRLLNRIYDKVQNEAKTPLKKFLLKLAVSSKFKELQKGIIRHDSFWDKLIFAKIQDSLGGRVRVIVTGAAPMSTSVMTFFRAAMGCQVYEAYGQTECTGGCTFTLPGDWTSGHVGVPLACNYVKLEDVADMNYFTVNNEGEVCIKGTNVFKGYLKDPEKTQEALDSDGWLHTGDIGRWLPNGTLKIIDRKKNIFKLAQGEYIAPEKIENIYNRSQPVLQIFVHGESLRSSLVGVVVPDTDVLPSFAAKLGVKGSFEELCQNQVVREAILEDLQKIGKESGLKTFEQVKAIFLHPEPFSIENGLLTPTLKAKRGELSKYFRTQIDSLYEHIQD
The experiment in a line: Inhibition of recombinant human ACSL5 assessed as reduction in […] prodution incubated for 90 mins in presence of Coenzyme A, ATP and MgCl2 by MALDI-TOF MS analysis.

Assay [4] concerns the target Fatty acid CoA ligase Acsl3 (Homo sapiens, UniProt O95573). The experiment in a line: Inhibition of recombinant human ACSL3 assessed as reduction in […] prodution incubated for 90 mins in presence of Coenzyme A, ATP and MgCl2 by MALDI-TOF MS analysis.
Assay [5] has as its target T3, Long-chain-fatty-acid--CoA ligase 1 (Homo sapiens, UniProt P33121).
T3 sequence (P33121 whole entry): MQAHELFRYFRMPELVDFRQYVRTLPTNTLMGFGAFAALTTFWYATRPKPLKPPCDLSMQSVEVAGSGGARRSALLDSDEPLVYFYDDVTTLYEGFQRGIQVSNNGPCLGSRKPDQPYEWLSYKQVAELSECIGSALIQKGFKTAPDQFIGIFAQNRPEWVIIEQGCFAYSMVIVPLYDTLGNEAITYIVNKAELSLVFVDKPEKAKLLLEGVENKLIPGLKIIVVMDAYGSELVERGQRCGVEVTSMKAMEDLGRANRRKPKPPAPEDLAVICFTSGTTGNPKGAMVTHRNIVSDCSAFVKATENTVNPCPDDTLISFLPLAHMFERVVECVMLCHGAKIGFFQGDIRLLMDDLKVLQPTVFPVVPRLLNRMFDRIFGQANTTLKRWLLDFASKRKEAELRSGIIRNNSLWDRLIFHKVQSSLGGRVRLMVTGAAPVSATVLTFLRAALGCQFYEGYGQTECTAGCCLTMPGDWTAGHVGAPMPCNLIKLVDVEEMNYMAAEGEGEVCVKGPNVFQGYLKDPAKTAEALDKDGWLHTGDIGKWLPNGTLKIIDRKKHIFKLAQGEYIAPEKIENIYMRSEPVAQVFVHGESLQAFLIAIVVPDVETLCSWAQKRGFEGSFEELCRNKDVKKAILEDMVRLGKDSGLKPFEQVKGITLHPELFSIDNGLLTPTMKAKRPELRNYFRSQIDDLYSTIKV
The experiment in a line: Inhibition of ACSL1 (unknown origin) assessed as reduction in […] prodution incubated for 90 mins in presence of Coenzyme A, ATP and MgCl2 by MALDI-TOF MS analysis.

A word on the IC50: it is the point on the concentration scale where inhibition reaches its midpoint.

Molecules are shown by their SMILES.

Sequence of Fatty acid CoA ligase Acsl3 (O95573 whole entry): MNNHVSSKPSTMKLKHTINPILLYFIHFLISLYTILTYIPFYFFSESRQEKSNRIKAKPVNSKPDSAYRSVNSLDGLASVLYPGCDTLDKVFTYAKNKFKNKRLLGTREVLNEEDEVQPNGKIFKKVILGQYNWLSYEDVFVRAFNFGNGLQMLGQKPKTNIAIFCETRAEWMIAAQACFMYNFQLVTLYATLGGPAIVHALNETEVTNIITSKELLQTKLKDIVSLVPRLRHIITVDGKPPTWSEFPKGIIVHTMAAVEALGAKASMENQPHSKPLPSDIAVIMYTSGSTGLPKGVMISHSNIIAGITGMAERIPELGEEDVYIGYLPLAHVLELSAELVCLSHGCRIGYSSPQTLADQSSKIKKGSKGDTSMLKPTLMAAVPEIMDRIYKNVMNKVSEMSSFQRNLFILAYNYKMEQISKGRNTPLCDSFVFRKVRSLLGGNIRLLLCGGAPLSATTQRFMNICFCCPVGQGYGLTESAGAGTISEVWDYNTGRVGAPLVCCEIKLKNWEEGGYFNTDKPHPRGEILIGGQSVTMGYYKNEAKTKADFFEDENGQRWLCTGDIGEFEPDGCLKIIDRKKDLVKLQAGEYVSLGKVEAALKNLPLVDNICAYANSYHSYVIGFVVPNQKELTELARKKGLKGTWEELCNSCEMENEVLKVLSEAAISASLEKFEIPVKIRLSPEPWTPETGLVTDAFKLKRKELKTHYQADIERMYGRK

With `O=C(O)CCCCCCOc1ccc2oc3ccccc3c(=O)c2c1`, the 50% inhibitory concentration (IC50) in assay [1] is 6.2 µM; in assay [2], over 200 µM; in assay [3], over 200 µM; in assay [4], 114 µM; in assay [5] it was 0.31 µM.

For the compound `O=C(O)CCCCOc1ccc2oc3ccccc3c(=O)c2c1`, the IC50 in assay [1] was 93 µM; in assay [2], over 200 µM; in assay [3], over 200 µM; in assay [4], over 200 µM; in assay [5], 1.7 µM.

For `O=c1c2ccccc2oc2ccc(O[C@H]3CC[C@@H](C(=O)O)CC3)cc12`, the half-maximal inhibitory concentration (IC50) in assay [1] is 70 µM; in assay [2] it was over 200 µM; in assay [3], over 200 µM; in assay [4], 69 µM; in assay [5] it was 0.24 µM.
